IC50 data for three compounds are collected here from BindingDB's records for PubMed 26907156 (n/a, 2016).

The target in the assay is CDK2/Cyclin E. The experiment in a line: Inhibition of CDK2/Cyclin E (unknown origin) using histone as substrate incubated for 30 mins in presence of gamma[33P]ATP by digital imaging analysis.
`CC(C)n1cnc2c(NCc3cc(Cl)ccc3O)nc(NCCC(C)(C)O)nc21`: the IC50 amounted to 20 nM.

Consider `CCC(CO)Nc1nc(NCc2cc(C)ccc2O)c2ncn(C(C)C)c2n1` (stereo not drawn), for which the IC50 stood at 20 nM.

Turning to `COc1cccc(CNc2nc(NC3CCCCC3N)nc3c2ncn3C(C)C)c1O` (stereo not drawn), the 50% inhibitory concentration (IC50) worked out at 20 nM.
